According to PubChem BioAssay (NCI):
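Results reflect a 48-hour exposure of cells in 96-well plates to compound at five concentrations. At the TGI there is no net growth.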

Assays:
Test in all cases: NCI anticancer screen, dose series, 48 h
786-0 renal = tested on: 786-0 renal
A498 renal = tested on: A498 renal
A549 NSCLC = tested on: A549 NSCLC
ACHN renal = tested on: ACHN renal
BT-549 breast = tested on: BT-549 breast
CAKI-1 renal = tested on: CAKI-1 renal
CCRF-CEM leukemia = tested on: CCRF-CEM leukemia
COLO 205 colon = tested on: COLO 205 colon
DU-145 prostate = tested on: DU-145 prostate
EKVX NSCLC = tested on: EKVX NSCLC
HCC-2998 colon = tested on: HCC-2998 colon
HCT-116 colon = tested on: HCT-116 colon
HCT-15 colon = tested on: HCT-15 colon
HL-60(TB) leukemia = tested on: HL-60(TB) leukemia
HOP-62 NSCLC = tested on: HOP-62 NSCLC
HS 578T breast = tested on: HS 578T breast
HT29 colon = tested on: HT29 colon
IGROV1 ovarian = tested on: IGROV1 ovarian
K-562 leukemia = tested on: K-562 leukemia
KM12 colon = tested on: KM12 colon
LOX IMVI melanoma = tested on: LOX IMVI melanoma
M14 melanoma = tested on: M14 melanoma
MALME-3M melanoma = tested on: MALME-3M melanoma
MCF7 breast = tested on: MCF7 breast
MDA-MB-231 breast = tested on: MDA-MB-231 breast
MDA-MB-435 = tested on: MDA-MB-435
MDA-N = tested on: MDA-N
MOLT-4 leukemia = tested on: MOLT-4 leukemia
NCI-H226 lung = tested on: NCI-H226 lung
NCI-H23 lung = tested on: NCI-H23 lung
NCI-H460 lung = tested on: NCI-H460 lung
NCI-H522 lung = tested on: NCI-H522 lung
NCI/ADR-RES ovarian = tested on: NCI/ADR-RES ovarian
OVCAR-3 ovarian = tested on: OVCAR-3 ovarian
OVCAR-4 ovarian = tested on: OVCAR-4 ovarian
OVCAR-5 ovarian = tested on: OVCAR-5 ovarian
OVCAR-8 ovarian = tested on: OVCAR-8 ovarian
PC-3 prostate = tested on: PC-3 prostate
RPMI-8226 leukemia = tested on: RPMI-8226 leukemia
RXF 393 renal = tested on: RXF 393 renal
SF-268 CNS = tested on: SF-268 CNS
SF-295 CNS = tested on: SF-295 CNS
SF-539 CNS = tested on: SF-539 CNS
SK-MEL-2 melanoma = tested on: SK-MEL-2 melanoma
SK-MEL-28 melanoma = tested on: SK-MEL-28 melanoma
SK-MEL-5 melanoma = tested on: SK-MEL-5 melanoma
SK-OV-3 ovarian = tested on: SK-OV-3 ovarian
SN12C renal = tested on: SN12C renal
SNB-19 CNS = tested on: SNB-19 CNS
SNB-75 CNS = tested on: SNB-75 CNS
SR leukemia = tested on: SR leukemia
SW-620 colon = tested on: SW-620 colon
T-47D breast = tested on: T-47D breast
TK-10 renal = tested on: TK-10 renal
U251 CNS = tested on: U251 CNS
UACC-257 melanoma = tested on: UACC-257 melanoma
UACC-62 melanoma = tested on: UACC-62 melanoma
UO-31 renal = tested on: UO-31 renal
HOP-92 NSCLC = tested on: HOP-92 NSCLC

Measured: TGI

O=C(O)CCCCn1ccc(=O)[nH]c1=O
not listed: HOP-92 NSCLC
> 100 µM: all other assays above

O[C@@H]1C[C@H](Cl)c2c(Cl)sc(Cl)c21
not listed: A498 renal | HL-60(TB) leukemia | NCI-H226 lung | HOP-92 NSCLC
> 100 µM: all other assays above

CC1CCCC(C(=O)CC2CC(=O)NC(=O)C2)C1=O (stereo unspecified)
not listed: NCI-H522 lung
> 100 µM: all other assays above
